Experimental data published in the supplement of paper PMC10307832.

Key:
Test in all cases: relative viability (nuclei count vs DMSO), 5 days (fraction); higher = more cells survive
[1] = test system: A-427
Method in brief: (§1)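 For relative viability, nuclei counts in treated wells were divided by those in vehicle wells. Lung cancer cell lines had been pin-tool dosed in 1536-well plates the day after seeding and cultured for 5 days, then fixed and stained in one step (final 0.05% Triton X-100, 1% formaldehyde, 1 ug/ml Hoechst) and imaged at 4×. Doses were one drug alone or a fixed anchor-drug dose plus five library-drug doses (not always all listed) in √10 steps, and values are duplicate-plate medians.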

[2] = test system: COR-L23
Method in brief: as §1

[3] = test system: EKVX
Method in brief: as §1

[4] = test system: EPLC-272H
Method in brief: as §1

[5] = test system: HCC-366
Method in brief: as §1

[6] = test system: HCC-44
Method in brief: as §1

[7] = test system: HCC-78
Method in brief: as §1

[8] = test system: HOP-62
Method in brief: as §1

[9] = test system: IA-LM
Method in brief: as §1

[10] = test system: LOU-NH91
Method in brief: as §1

[11] = test system: NCI-H1299
Method in brief: as §1

[12] = test system: NCI-H1395
Method in brief: as §1

[13] = test system: NCI-H1734
Method in brief: as §1

[14] = test system: NCI-H1915
Method in brief: as §1

[15] = test system: NCI-H2023
Method in brief: as §1

[16] = test system: NCI-H2087
Method in brief: as §1

[17] = test system: NCI-H3122
Method in brief: as §1

[18] = test system: NCI-H358
Method in brief: as §1

[19] = test system: NCI-H596
Method in brief: as §1

[20] = test system: NCI-H650
Method in brief: as §1

[21] = test system: NCI-H661
Method in brief: as §1

[22] = test system: NCI-H838
Method in brief: as §1

[23] = test system: SK-MES-1
Method in brief: as §1

SMILES: CCCCCCCCCCCC1=C(O)C(=O)C=C(O)C1=O [Embelin] + Cc1nc(NC(=O)N2CCC[C@H]2C(N)=O)sc1-c1ccnc(C(C)(C)C(F)(F)F)c1 [Alpelisib] (partner 2 µM)
- relative viability ([1]; first compound 0.08 µM): 1.1
- relative viability ([1]; first compound 0.8 µM): 1.13
- relative viability ([1]; first compound 2.53 µM): 1.12
- relative viability ([1]; first compound 8 µM): 1.07
- relative viability ([2]; first compound 0.08 µM): 0.872
- relative viability ([2]; first compound 0.8 µM): 1.11
- relative viability ([2]; first compound 2.53 µM): 0.874
- relative viability ([2]; first compound 8 µM): 0.777
- relative viability ([3]; first compound 0.08 µM): 0.849
- relative viability ([3]; first compound 0.8 µM): 0.914
- relative viability ([3]; first compound 2.53 µM): 0.999
- relative viability ([3]; first compound 8 µM): 0.823
- relative viability ([4]; first compound 0.08 µM): 0.963
- relative viability ([4]; first compound 0.8 µM): 1.21
- relative viability ([4]; first compound 2.53 µM): 0.908
- relative viability ([4]; first compound 8 µM): 0.933
- relative viability ([5]; first compound 0.08 µM): 0.411
- relative viability ([5]; first compound 0.8 µM): 0.418
- relative viability ([5]; first compound 2.53 µM): 0.412
- relative viability ([5]; first compound 8 µM): 0.427
- relative viability ([6]; first compound 0.08 µM): 0.781
- relative viability ([6]; first compound 0.8 µM): 0.767
- relative viability ([6]; first compound 2.53 µM): 0.895
- relative viability ([6]; first compound 8 µM): 1
- relative viability ([7]; first compound 0.08 µM): 0.329
- relative viability ([7]; first compound 0.8 µM): 0.392
- relative viability ([7]; first compound 2.53 µM): 0.388
- relative viability ([7]; first compound 8 µM): 0.307
- relative viability ([8]; first compound 0.08 µM): 1.04
- relative viability ([8]; first compound 0.8 µM): 0.918
- relative viability ([8]; first compound 2.53 µM): 1.41
- relative viability ([8]; first compound 8 µM): 0.796
- relative viability ([9]; first compound 0.08 µM): 0.778
- relative viability ([9]; first compound 0.8 µM): 0.753
- relative viability ([9]; first compound 2.53 µM): 0.839
- relative viability ([9]; first compound 8 µM): 0.191
- relative viability ([10]; first compound 0.08 µM): 0.771
- relative viability ([10]; first compound 0.8 µM): 0.904
- relative viability ([10]; first compound 2.53 µM): 0.862
- relative viability ([10]; first compound 8 µM): 0.709
- relative viability ([11]; first compound 0.08 µM): 1.08
- relative viability ([11]; first compound 0.8 µM): 1.07
- relative viability ([11]; first compound 2.53 µM): 1.07
- relative viability ([11]; first compound 8 µM): 1.11
- relative viability ([12]; first compound 0.08 µM): 1.06
- relative viability ([12]; first compound 0.8 µM): 1.24
- relative viability ([12]; first compound 2.53 µM): 0.982
- relative viability ([12]; first compound 8 µM): 1.1
- relative viability ([13]; first compound 0.08 µM): 0.758
- relative viability ([13]; first compound 0.8 µM): 0.726
- relative viability ([13]; first compound 2.53 µM): 0.745
- relative viability ([13]; first compound 8 µM): 0.741
- relative viability ([14]; first compound 0.08 µM): 1.12
- relative viability ([14]; first compound 0.8 µM): 1.15
- relative viability ([14]; first compound 2.53 µM): 1.11
- relative viability ([14]; first compound 8 µM): 1.08
- relative viability ([15]; first compound 0.08 µM): 0.708
- relative viability ([15]; first compound 0.8 µM): 0.532
- relative viability ([15]; first compound 2.53 µM): 0.651
- relative viability ([15]; first compound 8 µM): 0.639
- relative viability ([16]; first compound 0.08 µM): 0.988
- relative viability ([16]; first compound 0.8 µM): 1.13
- relative viability ([16]; first compound 2.53 µM): 1.03
- relative viability ([16]; first compound 8 µM): 1.08
- relative viability ([17]; first compound 0.08 µM): 0.746
- relative viability ([17]; first compound 0.8 µM): 0.697
- relative viability ([17]; first compound 2.53 µM): 0.728
- relative viability ([17]; first compound 8 µM): 0.737
- relative viability ([18]; first compound 0.08 µM): 0.852
- relative viability ([18]; first compound 0.8 µM): 0.958
- relative viability ([18]; first compound 2.53 µM): 1.09
- relative viability ([18]; first compound 8 µM): 0.918
- relative viability ([19]; first compound 0.08 µM): 0.487
- relative viability ([19]; first compound 0.8 µM): 0.522
- relative viability ([19]; first compound 2.53 µM): 0.482
- relative viability ([19]; first compound 8 µM): 0.581
- relative viability ([20]; first compound 0.08 µM): 1.14
- relative viability ([20]; first compound 0.8 µM): 1.26
- relative viability ([20]; first compound 2.53 µM): 1.02
- relative viability ([20]; first compound 8 µM): 1.06
- relative viability ([21]; first compound 0.08 µM): 0.612
- relative viability ([21]; first compound 0.8 µM): 0.97
- relative viability ([21]; first compound 2.53 µM): 0.92
- relative viability ([21]; first compound 8 µM): 0.756
- relative viability ([22]; first compound 0.08 µM): 1.01
- relative viability ([22]; first compound 0.8 µM): 1
- relative viability ([22]; first compound 2.53 µM): 1.12
- relative viability ([22]; first compound 8 µM): 1.11
- relative viability ([23]; first compound 0.08 µM): 0.902
- relative viability ([23]; first compound 0.8 µM): 1.15
- relative viability ([23]; first compound 2.53 µM): 0.96
- relative viability ([23]; first compound 8 µM): 0.876
